Laboratory results published in ChEMBL document CHEMBL4613205, “Peptide-based and small synthetic molecule inhibitors on PD-1/PD-L1 pathway: A new choice for immunotherapy?” (Eur J Med Chem, 2019).
Bridge positions count the residues as written; N and C are the ends. Square brackets hold non-standard residues; d marks the D form. Peptide text beside a SMILES is read from it. * marks the point of attachment. ξ: configuration not given here. X1 = NC(CO)C(=O)NC(Cc1ccccc1)C(=O)NCCCCN*; ξE = NC(CCC(=O)O)C(=O)O; ξK = NCCCCC(N)C(=O)O

Assays:
[1] = molecular target: T1, Programmed cell death 1 ligand 1 (Homo sapiens, UniProt Q9NZQ7); assay: Antagonist activity against PDL1 (unknown origin)
Splenocyte [2] = assay: Antiproliferative activity against mouse splenocytes at 100 nM relative to control; format: functional
Splenocyte [3] = assay: Antiproliferative activity against mouse splenocytes relative to control; format: functional; design: concentration or dose not given beside the values
[4] = molecular target: Programmed cell death protein 1/Programmed cell death 1 ligand 1 (Homo sapiens, UniProt Q15116+Q9NZQ7); assay: Inhibition of human PD1/PDL1 protein-protein interaction by HTRF assay; format: protein-complex assay
B16-F10 = assay: Antitumor activity against mouse B16F10 cells xenografted in mouse assessed as reduction in tumor growth at 5 mg/kg, sc qd after 14 days relative to control; format: functional; details: 336 h, read-out: TGI
CT26 = assay: Antitumor activity against mouse CT26 cells xenografted in mouse assessed as reduction in tumor growth at 3 mg/kg after 25 days relative to control; format: functional; details: CT26, 600 h, read-out: TGI
[5] = molecular target: T1, Programmed cell death 1 ligand 1; assay: Inhibition of PDL1 (unknown origin)
[6] = molecular target: T2, Programmed cell death 1 ligand 2 (Homo sapiens, UniProt Q9BQ51); assay: Inhibition of PDL2 (unknown origin)
T2 sequence (Q9BQ51 whole entry): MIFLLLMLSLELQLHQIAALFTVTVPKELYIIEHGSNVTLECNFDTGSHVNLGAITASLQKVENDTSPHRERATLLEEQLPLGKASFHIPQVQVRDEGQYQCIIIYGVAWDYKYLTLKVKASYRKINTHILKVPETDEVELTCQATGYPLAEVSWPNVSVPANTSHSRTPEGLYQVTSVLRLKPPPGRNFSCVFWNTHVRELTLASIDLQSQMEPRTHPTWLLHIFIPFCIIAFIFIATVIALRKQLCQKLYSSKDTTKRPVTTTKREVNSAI

4T1 = assay: Antitumor activity against mouse 4T1 cells xenografted in mouse assessed as reduction in tumor growth at 3 mg/kg, sc qd after 40 days relative to control; format: functional; details: 4T1, sc, 960 h, read-out: TGI
HEK293 = assay: Antiproliferative activity against HEK293 cells; format: functional, cell-based; details: Homo sapiens
MDA-MB-231 = assay: Antiproliferative activity against human MDA-MB-231 cells; format: functional, cell-based

Chain of Programmed cell death protein 1/Programmed cell death 1 ligand 1 (Q15116 whole entry): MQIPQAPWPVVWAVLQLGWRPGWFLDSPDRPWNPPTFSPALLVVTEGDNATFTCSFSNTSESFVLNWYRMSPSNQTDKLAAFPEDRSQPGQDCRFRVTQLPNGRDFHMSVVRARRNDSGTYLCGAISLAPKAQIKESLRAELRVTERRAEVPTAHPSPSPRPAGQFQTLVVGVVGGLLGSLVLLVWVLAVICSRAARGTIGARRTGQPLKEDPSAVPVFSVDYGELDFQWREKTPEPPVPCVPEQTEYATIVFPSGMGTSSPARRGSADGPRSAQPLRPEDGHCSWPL
Chain of Programmed cell death protein 1/Programmed cell death 1 ligand 1 (Q9NZQ7 whole entry): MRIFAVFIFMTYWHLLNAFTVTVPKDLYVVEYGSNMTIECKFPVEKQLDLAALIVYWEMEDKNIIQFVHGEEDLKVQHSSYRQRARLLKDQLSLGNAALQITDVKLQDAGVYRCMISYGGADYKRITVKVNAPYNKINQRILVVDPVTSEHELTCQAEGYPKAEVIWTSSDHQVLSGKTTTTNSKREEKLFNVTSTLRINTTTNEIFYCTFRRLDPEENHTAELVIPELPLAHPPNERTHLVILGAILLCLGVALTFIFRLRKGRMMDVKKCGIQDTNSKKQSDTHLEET
T1 sequence (Q9NZQ7 whole entry): as above

Cc1c(-c2ccccc2)cccc1-c1nc2cc(CNCCO)ccc2o1 was tested, and the IC50 [1] was < 0.1 µM.

In the case of Cc1c(-c2ccccc2)cccc1-c1nc2c(s1)CNCC2, the IC50 [1] is reported as < 0.1 µM.

For NC(=O)C[C@H](N)c1nc([C@@H](N)CO)no1, the Activity (Splenocyte [2]) was 93%.

N#Cc1cncc(COc2cc(O[C@H]3CCc4c(-c5ccccc5)cccc43)c(Cl)cc2CN[C@@H](CO)C(=O)O)c1 was tested, and the IC50 [1] was < 0.1 µM.

In the case of NCCCC[C@H](N)c1nnc([C@H](CC(N)=O)NC(=O)N[C@@H](CCC(=O)O)C(=O)O)o1, the Activity (Splenocyte [3]) is reported as 79%.

Work on Cc1c(/C=C/c2cc(CNC(C)(CO)C(=O)O)ccc2C(F)(F)F)cccc1-c1ccc2c(c1)OCCO2 (configuration not stated) yielded an IC50 [4] of 0.018 µM.

Work on O=C(O)C[C@H]1NC(=O)N[C@H](CO)C(=O)NCCOCCOCC(=O)N[C@@H](CO)C(=O)NNC1=O yielded an Activity (Splenocyte [3]) of 92%.

C[C@@H](O)[C@@H]1NC(=O)C(NC(=O)[C@@H](N)CO)CCC(=O)NCCCCC(C(=O)N[C@@H](CO)C(=O)N[C@@H](Cc2ccccc2)C(N)=O)NC(=O)[C@H](CO)NC1=O (some centres not stated) (H-S[ξE]TS[ξK]SF-NH2; lactam 2-5) showed an Activity (Splenocyte [2]) of 78% and an inhibition in vivo at 5 mg/kg (B16-F10) of 54%.

C#CC[C@H](NC(=O)N[C@H](C(=O)O)[C@@H](C)O)c1nc(-c2cnccn2)no1 was tested, and the Activity (Splenocyte [3]) was 92%.

In the case of Cc1c(NC(=O)c2cc(CN3CCCC[C@H]3C(=O)O)cn(C)c2=O)cccc1-c1ccccc1, the IC50 [4] is reported as < 0.1 µM.

For N#Cc1c(NC(=O)c2ccc(CNCCO)cn2)cccc1-c1ccccc1, the IC50 [4] was < 0.01 µM.

Cc1c(-c2ccccc2)cccc1-c1cn2nc(CNCCO)cnc2n1 was tested, and the IC50 [1] was < 0.1 µM.

N#Cc1cccc(COc2cc(OCc3cccc(-c4ccccc4)c3Br)c(Cl)cc2CN2CCCC[C@H]2C(=O)O)c1 showed an IC50 [4] of 800 µM.

C[C@@H](O)[C@H](NC(=O)N[C@@H](CC(N)=O)C(=O)NNC(=O)[C@@H](N)CO)C(=O)O was tested, and the inhibition in vivo at 3 mg/kg (CT26) was 46%, the EC50 [5] was 0.03 µM and the EC50 [6] was 0.04 µM. For the same compound, the Activity (Splenocyte [2]) was 68%.

CCCNC(=O)CC[C@H](NC(=O)N[C@H](C(=O)O)[C@@H](C)O)c1nc([C@@H](N)CO)no1 showed an Activity (Splenocyte [2]) of 119%.

For N#Cc1c(-c2ccc3c(c2)OCCO3)cccc1N1CCC(N[C@H]2C[C@@H](O)C2)CC1, the IC50 [1] was < 0.1 µM.

In the case of Cc1c(COc2cc(OCc3cncc(C#N)c3)c(CN(C)C(CO)(CO)CO)cc2Cl)cccc1-c1cccc(OCCCN2CCC(F)(F)C2)c1C, the IC50 [4] is reported as 0.0005 µM.

For C[C@@H](O)[C@H](N)c1nnc([C@H](CCC(N)=O)NC(=O)N[C@@H](CO)C(=O)O)o1, the Activity (Splenocyte [3]) was 92%.

C[C@@H](O)[C@H](NC(=O)[C@H](CC(N)=O)NC(=O)[C@@H](N)CO)C(=O)N[C@@H](CO)C(=O)NC(CCC(=O)NCCCCNC(=O)C(Cc1ccccc1)NC(=O)C(N)CO)C(N)=O (some centres not stated) (H-SNTS[ξE](X1)-NH2) showed an inhibition in vivo at 5 mg/kg (B16-F10) of 64%.

NCCCC[C@H](NC(=O)N[C@@H](CC(N)=O)C(=O)NNC(=O)[C@@H](N)CO)C(=O)O showed an Activity (Splenocyte [3]) of 87%.

With NC(=O)C[C@H](NC(=O)N[C@@H](CO)C(=O)O)c1nc([C@@H](N)CO)no1 the Activity (Splenocyte [3]) was 91%.

NC(=O)C[C@H](NC(=O)N[C@@H](CO)C(=O)O)c1nnc(-c2cnccn2)o1 showed an Activity (Splenocyte [3]) of 63%.

With O=C(/C=C/c1ccc(O)c(O)c1)O[C@H]1C[C@@](O)(C(=O)O)C[C@H](O)[C@@H]1O the IC50 [1] was 36.6 µM.

With Cc1c(COc2cc(OCc3cncc(C#N)c3)c(CN(C)C(C)(CO)CO)cc2Cl)cccc1-c1ccnc(OCCCN2CCCCC2)c1Cl the IC50 [4] was < 0.01 µM.

CC[C@H](C)[C@H](NC(=O)[C@H](CCC(N)=O)NC(=O)[C@H](C)NC(=O)[C@H](CCCCN)NC(=O)[C@@H]1CCCN1C(=O)[C@H](C)NC(=O)[C@H](CC(C)C)NC(=O)[C@H](CCC(N)=O)NC(=O)[C@@H](NC(=O)[C@@H](NC(=O)[C@H](CCCNC(=N)N)NC(=O)[C@H](Cc1ccccc1)NC(=O)[C@H](CCCCNC(=O)[C@H](Cc1ccccc1)NC(=O)[C@H](CO)NC(=O)[C@H](CCC(=O)O)NC(=O)[C@H](CO)NC(=O)[C@@H](NC(=O)[C@H](CC(N)=O)NC(=O)[C@@H](N)CO)[C@@H](C)O)NC(=O)[C@H](Cc1ccccc1)NC(=O)[C@H](CO)NC(=O)[C@H](CCC(=O)O)NC(=O)[C@H](CO)NC(=O)[C@@H](NC(=O)[C@H](CC(N)=O)NC(=O)[C@@H](N)CO)[C@@H](C)O)C(C)C)[C@@H](C)O)C(=O)N[C@@H](CCCCN)C(=O)N[C@@H](CCC(=O)O)C(N)=O gave an inhibition in vivo at 3 mg/kg (4T1) of 44%, an inhibition in vivo at 5 mg/kg (B16-F10) of 44% and an IC50 (HEK293) of 0.00072 µM. For the same compound, the IC50 (MDA-MB-231) was 0.00041 µM.
